Reference: patent publication US7196083B2, “Heteropolycyclic inhibitors of protein kinases” (priority 2000, dated 2007)

Assays:
[1] = In vivo xenograft model, tumour growth; conditions: 2.5 mg/kg daily i.p. in DMSO, day 15, athymic (Rag2M) female mice; control 100%
Procedure: Mice were inoculated subcutaenously in the rear flank with […] (LS180) and then injected daily with KP-23172 i.p. Tumour measurements were taken daily. A group of 8 athymic (Rag2M) female mice were used as a murine allograft model for the test compound, which was administered in DMSO. 8 control mice received no test compound. Mice were inoculated with tumour cells subcutaneously in the rear flank and then injected with test compound daily intraperitoneally. Tumors were measured and the size calculated, with the objective being a reduction in tumor growth compared to controls. […] Results are illustrated in FIG. 4.

[2] = target: T1, PKB alpha (Homo sapiens, UniProt P31749); assay: Kinase assay in U87 cells using anti PKB alpha antibody; assay type: cell-based; conditions: U-87 MG, 1 h, after 60 min, read-out: PKB alpha isoform activity, reduction of activity to
T1 construct: endogenous in cells; host or cells: U87 cells
Procedure: In preparation for this assay, each cell line was seeded at a density of 3 times 1,000,000 cells per plate onto 150 mm culture dishes and allowed to establish o/n at 37 deg C. A confluency of 50–60% was obtained to ensure maximal drug penetration into each cell. Once the cells were adherent to the culture plates, there were treated with PKB inhibitor KP-23172 for a final conc. of 5 uM. Each culture plate was lysed on ice at specific time intervals using 1% NP-40 lysis buffer containing various protease inhibitors; 10 ug/uL aprotinin, 10 ug/ul leupeptin, 1 ug/ul pepstatin, 1 M beta-glycerophosphate and 100 mM PMSF. The resulting lysates were centrifuged at 15K×g at 4 deg C. for 5 min and then assayed for its protein conc. using Bradford's Reagent and absorbance measurements at 595 nm. Equal amounts of protein were transferred to a new centrifuge tube and treated with anti-PKB-PH antibody (Kinetek #XXP-021), anti-PKBalpha antibody (Signal Transduction #67220), or anti-PKB gamma antibody (UBI 306-607) and incubated end over end at 4 deg C. […] All vials were counted for one minute in the scintillation counter.
A kinase assay in cells was also performed using anti PKB alpha and gamma antibodies in order to determine any inhibition of the isoforms by KP-23172. U87 cells were treated with 5 uM compound, lysed, and the resulting supernatant was analyzed for any changed in PKB activity. […]

[3] = system: LS-180 (human colon carcinoma); assay: [3H] thymidine uptake cell proliferation assay, LS180; assay type: cell-based; conditions: read-out: Cell Proliferation Effects (IC50 (nM))
[4] = system: LL2 Lewis Lung human lung carcinoma; assay: [3H] thymidine uptake cell proliferation assay, LL2; assay type: cell-based; conditions: LL/2, read-out: Cell Proliferation Effects (IC50 (nM))
[5] = system: PKB; assay: Time course kinase assay in U87 cells, immunoprecipitated with PKB/PH specific antibody; assay type: cell-based, human; conditions: for PKB activity, % of control: 5 uM, background about 15% of control
Procedure: The compound was added to culture at mid-logarithmic growth which were harvested at specific time intervals. In preparation for this assay, each cell line was seeded at a density of 3 times 1,000,000 cells per plate onto 150 mm culture dishes and allowed to establish o/n at 37 deg C. A confluency of 50–60% was obtained to ensure maximal drug penetration into each cell. Once the cells were adherent to the culture plates, there were treated with PKB inhibitor KP-23172 for a final conc. of 5 uM. Each culture plate was lysed on ice at specific time intervals using 1% NP-40 lysis buffer containing various protease inhibitors; 10 ug/uL aprotinin, 10 ug/ul leupeptin, 1 ug/ul pepstatin, 1 M beta-glycerophosphate and 100 mM PMSF. The resulting lysates were centrifuged at 15K×g at 4 deg C. for 5 min and then assayed for its protein conc. using Bradford's Reagent and absorbance measurements at 595 nm. […] Each sample was then centrifuged at 14K×g for 2 min at 4 deg C. and the s/n aspirated off. Beads were thoroughly washed twice with lysis buffer, then with Assay Dilution Buffer. When any unbound proteins have been completely washed away from the beads, 30 uL of ADB was added along with 10 uL of PDB substrate. Tubes were immediately incubated in 30 deg. C. water baths after the kinase reaction was allowed to commence with the addition of 10 uL assay (gamma32P)ATP. […] All vials were counted for one minute in the scintillation counter. To determine the potency of KP-23172, U87 cells were plated onto 150 mm petri plates and treated with 5 uM KP-23172. After incubation at 37 deg C. under 5% CO2 for the specified time, cells were lysed and the supernatant extracted for kinase analysis. All samples were immunoprecipitated with PKB/PH specific antibody and kinase activity. measured using a short amino acid peptide as the substrate. […] Background was about 15% of control.

[6] = system: NIH-3T3 (murine embryonic fibroblasts); assay: [3H] thymidine uptake cell proliferation assay, NIH3T3; assay type: cell-based; conditions: Mus musculus; NIH3T3, non-tumorigenic cell line; read-out: Cell Proliferation Effects (IC50 (nM))
[7] = system: M3 murine melanoma cells; assay: [3H] thymidine uptake cell proliferation assay, M3; assay type: cell-based; conditions: Mus musculus, read-out: Cell Proliferation Effects (IC50 (nM))
[8] = in vivo; conditions: mouse, ip, 2 mg/kg
Procedure: A pharmacokinetics (PK) study was performed on KP-23172 formulated in 20% propylene glycol and 20% hydroxypropyl-B-cyclodextrin, administered intraperitoneally (i.p.) at 2 mg/kg. Plasma samples obtained at various time points were sent to BRI Biopharmaceutical Research Inc., Burnaby, BC, Canada for analysis by Liquid Chromatography/Mass Spectroscopy (LC/MS). Electrospray LC/MS/MS data was acquired in the multiple-reaction-monitoring mode (MRM) in which m/z 225.00>114.20 was monitored for KP-23172 as its [M+H]^+ transition to an ion fragment of m/z 114.2. A mass ion transition of m/z 300.00>165.10 was being monitored for codeine as an internal standard. MRM chromatograms of mouse plasma standard curve samples spiked with 1 and 5000 ng/ml were performed as controls. Plasma calibration standard curves were established based on 1/y linear regression of plasma concentrations of KP-23172 against peak area ratio to the internal standard. The calculated KP-23172 plasma concentrations were based on the assay of 0.05 ml of plasma volume used in the assay and reported as ng/ml concentration. A summary of the KP-23172 plasma concentrations observed in 20 samples from 4 mice is presented in FIG. 2 as a semi-logarithmic plot of the plasma concentrations against blood collection times.

[9] = system: DU-145 (human carcinoma); assay: [3H] thymidine uptake cell proliferation assay, DU145; assay type: cell-based; conditions: read-out: Cell Proliferation Effects (IC50 (nM))

T1 sequence (P31749 whole entry, canonical isoform): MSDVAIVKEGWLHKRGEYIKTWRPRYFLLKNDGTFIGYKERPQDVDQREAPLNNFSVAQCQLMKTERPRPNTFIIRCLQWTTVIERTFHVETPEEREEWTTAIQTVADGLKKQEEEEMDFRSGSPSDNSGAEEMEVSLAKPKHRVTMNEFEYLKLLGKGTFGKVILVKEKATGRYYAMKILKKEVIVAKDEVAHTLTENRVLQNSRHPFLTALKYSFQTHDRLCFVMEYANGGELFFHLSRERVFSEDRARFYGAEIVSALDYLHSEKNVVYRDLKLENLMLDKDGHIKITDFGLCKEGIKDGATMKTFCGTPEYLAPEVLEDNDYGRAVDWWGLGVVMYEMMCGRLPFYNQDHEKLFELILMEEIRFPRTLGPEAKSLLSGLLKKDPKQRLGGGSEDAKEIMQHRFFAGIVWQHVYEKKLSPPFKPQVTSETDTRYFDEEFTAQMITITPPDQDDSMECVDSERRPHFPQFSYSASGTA

Question: For O=C1c2ccccc2-c2nc3nnnn3nc21 [KP-23172], which tumor take rate [1] is on record?
Answer: Its tumor take rate is 62.5%.

Question: And the activity at 5 µM [2]?
Answer: Its activity at 5 µM is 29.6%.

Question: What about the IC50 [3] of the same molecule?
Answer: Its IC50 is 80 nM.

Question: And the IC50 [4]?
Answer: The IC50 was 400 nM.

Question: What about the “PKB activity, % of control” value ([5]; after 15 min) of the same molecule?
Answer: The value was 80.4%.

Question: What about the “PKB activity, % of control” value ([5]; after 30 min) of the same molecule?
Answer: The value was 23.8%.

Question: What about the “PKB activity, % of control” value ([5]; after 60 min) of the same molecule?
Answer: The value was 38.5%.

Question: And the “levels of the kinase in time course kinase assay” value ([5]; 5 iM, after 60 minutes)?
Answer: Its value is “significantly decreased levels of the kinase”.

Question: And the IC50 [6]?
Answer: The IC50 was 150 nM.

Question: And the IC50 [7]?
Answer: Its IC50 is 25 nM.

Question: And the concentration at 15 min [8]?
Answer: Its concentration at 15 min is ~500 ng/mL.

Question: And the concentration at 60 min [8]?
Answer: Its concentration at 60 min is ~100 ng/mL.

Question: What about the half-life [8] of the same molecule?
Answer: The half-life was “about ½”.

Question: What about the IC50 [9] of the same molecule?
Answer: Its IC50 is 50 nM.
